We go through 27 molecules from patent publication US9850225B2, “Compounds useful as immunomodulators” (BRISTOL-MYERS SQUIBB COMPANY, priority 2014, dated 2017).

The target in the assay is PD-1/PD-L1 interaction (PD-1-Ig / PD-L1-His) (Homo sapiens (Human), UniProt Q9NZQ7). Nature of the assay: PD-1/PD-L1 Homogenous Time-Resolved Fluorescence (HTRF) binding assay. The conditions noted are these: PD-1/PD-L1 HTRF binding assay; value given as range class; read-out: Range or IC50. Put shortly: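 Human PD-L1-His (10 nM final) was pre-incubated with inhibitor for 15 min, then PD-1-Ig (20 nM final) was added for a further 15 min in dPBS with 0.1% BSA and 0.05% Tween-20. Binding was detected by HTRF using Eu-cryptate anti-Ig (1 nM) and APC anti-His (20 nM).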
A general note: Time-resolved FRET reads energy transfer from a long-lived donor to a nearby acceptor.

A word on the IC50: it is the concentration needed to halve the response being measured.

Sequence of PD-1/PD-L1 interaction (PD-1-Ig / PD-L1-His) (Q9NZQ7 other isoform, or with tags, fused parts or gaps): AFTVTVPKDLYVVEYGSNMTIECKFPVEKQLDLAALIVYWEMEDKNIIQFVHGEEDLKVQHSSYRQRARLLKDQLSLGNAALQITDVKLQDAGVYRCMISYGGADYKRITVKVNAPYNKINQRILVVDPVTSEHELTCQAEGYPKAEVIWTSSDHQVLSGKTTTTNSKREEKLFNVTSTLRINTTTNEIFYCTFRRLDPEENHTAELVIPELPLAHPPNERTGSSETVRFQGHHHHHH

With `Cc1c(COc2cc(OCc3cccc(C#N)c3)c(CNC3(C(=O)O)CC3)cc2Cl)cccc1-c1ccc2c(c1)OCCO2` [Example 1177, 1-((5-chloro-2-((3-cyanobenzyl)oxy)-4-((3-(2,3-dihydrobenzo[b][1,4]dioxin-6-yl)-2-methylbenzyl)oxy)benzyl)amino)cyclopropanecarboxylic acid], the IC50 lay in the range of 0.6 to 10 nM.

With `COc1cc(OCc2cccc(-c3ccc4c(c3)OCCO4)c2C)cc(OCc2cccc(C#N)c2)c1CN[C@@](C)(CO)C(=O)O` [Example 1142, (S)-2-((2-((3-cyanobenzyl)oxy)-4-((3-(2,3-dihydrobenzo[b][1,4]dioxin-6-yl)-2-methylbenzyl)oxy)-6-methoxybenzyl)amino)-3-hydroxy-2-methylpropanoic acid], the IC50 is 0.6 to 10 nM.

Regarding `CC(=O)NCCNCc1cc(C)c(OCc2cccc(-c3ccc4c(c3)OCCO4)c2C)cc1OCc1cncc(C#N)c1` [Example 1282, N-(2-(2-((5-cyanopyridin-3-yl)methoxy)-4-(3-(2,3-dihydrobenzo[b][1,4]dioxin-6-yl)-2-methylbenzyloxy)-5-methylbenzylamino)ethyl)acetamide], the IC50 fell in the range of 0.6 to 10 nM.

For `Cc1c(COc2cc(OCc3cccc(C#N)c3)c(CNC3(C(=O)O)COC3)cc2Cl)cccc1-c1ccc2c(c1)OCCO2` [Example 1243, 3-((5-chloro-2-((3-cyanobenzyl)oxy)-4-((3-(2,3-dihydrobenzo[b][1,4]dioxin-6-yl)-2-methylbenzyl)oxy)benzyl)amino)oxetane-3-carboxylic acid], the half-maximal inhibitory concentration (IC50) lay in the range of 10 to 100 nM.

As for `Cc1c(COc2cc(OCc3cncc(C#N)c3)c(CN[C@@H](CCCN)C(=O)O)cc2Cl)cccc1-c1ccc2c(c1)OCCO2` [Example 2003, (S)-5-amino-2-((5-chloro-2-((5-cyanopyridin-3-yl)methoxy)-4-((3-(2,3-dihydrobenzo[b][1,4]dioxin-6-yl)-2-methylbenzyl)oxy)benzyl)amino)pentanoic acid], the half-inhibitory concentration (IC50) is 0.6 to 10 nM.

In the case of `N#Cc1cccc(COc2cc(OCc3cccc(-c4ccc5c(c4)OCCO5)c3C#N)c(Br)cc2CN2CCCC[C@H]2C(=O)O)c1` [Example 1313, (S)-1-(5-bromo-4-((2-cyano-3-(2,3-dihydrobenzo[b][1,4]dioxin-6-yl)benzyl)oxy)-2-((3-cyanobenzyl)oxy)benzyl)piperidine-2-carboxylic acid], the half-inhibitory concentration (IC50) fell in the range of 0.6 to 10 nM.

In the case of `CC(=O)NCCNCc1ccc(OCc2cccc(-c3ccccc3)c2C)cc1OCc1ccncc1` [Example 1111, N-(2-((4-((2-methyl-[1,1′-biphenyl]-3-yl)methoxy)-2-(pyridin-4-ylmethoxy)benzyl)amino)ethyl)acetamide], the IC50 lay in the range of 10 to 100 nM.

For the molecule `CC(=O)NCCNCc1ccc(OCc2cccc(-c3ccccc3)c2C)cc1OCc1cccc(Cl)c1F` [Example 1072, N-(2-((2-((3-chloro-2-fluorobenzyl)oxy)-4-((2-methyl-[1,1′-biphenyl]-3-yl)methoxy)benzyl)amino)ethyl)acetamide], the IC50 fell in the range of 100 to 20000 nM.

On to `Cc1c(COc2cc(OCc3cccc(C#N)c3)c(CN[C@H](Cc3cn(Cc4ccccc4)cn3)C(=O)O)cc2Cl)cccc1-c1ccc2c(c1)OCCO2` [Example 1228, (R)-3-(1-benzyl-1H-imidazol-4-yl)-2-((5-chloro-2-((3-cyanobenzyl)oxy)-4-((3-(2,3-dihydrobenzo[b][1,4]dioxin-6-yl)-2-methylbenzyl)oxy)benzyl)amino)propanoic acid], for which the concentration for half-maximal inhibition (IC50) was in the range of 10 to 100 nM.

As to `CC(=O)NCCNCc1cc(Br)c(OCc2cccc(-c3ccc4c(c3)OCCO4)c2C#N)cc1OCc1cccc(C#N)c1` [Example 1315, N-(2-((5-bromo-4-((2-cyano-3-(2,3-dihydrobenzo[b][1,4]dioxin-6-yl)benzyl)oxy)-2-((3-cyanobenzyl)oxy)benzyl)amino)ethyl)acetamide], the IC50 is 0.6 to 10 nM.

For the molecule `CC(=O)NCCNCc1ccc(OCc2cccc(-c3ccccc3)c2C)cc1OCc1cc(C)cc(C)c1` [Example 1065, N-(2-((2-((3,5-dimethylbenzyl)oxy)-4-((2-methyl-[1,1′-biphenyl]-3-yl)methoxy)benzyl)amino)ethyl)acetamide], the IC50 was 100 to 20000 nM.

Regarding `Cc1c(COc2ccc(CN[C@](C)(CO)C(=O)O)c(OCc3cccc(C(N)=O)c3)c2)cccc1-c1ccc2c(c1)OCCO2` [Example 1326, (R)-2-((2-((3-carbamoylbenzyl)oxy)-4-((3-(2,3-dihydrobenzo[b][1,4]dioxin-6-yl)-2-methylbenzyl)oxy)benzyl)amino)-3-hydroxy-2-methylpropanoic acid], the IC50 lay in the range of 0.6 to 10 nM.

Consider `Cc1c(COc2cc(OCc3cncc(C#N)c3)c(CNCC(=O)O)cc2Cl)cccc1-c1ccc2c(c1)OCCO2` [Example 2013, 2-((5-chloro-2-((5-cyanopyridin-3-yl)methoxy)-4-((3-(2,3-dihydrobenzo[b][1,4]dioxin-6-yl)-2-methylbenzyl)oxy)benzyl)amino)acetic acid], for which the IC50 lay in the range of 0.6 to 10 nM.

With `CCOC(=O)Nc1cncc(COc2cc(OCc3cccc(-c4ccc5c(c4)OCCO5)c3C)c(Cl)cc2C=O)c1` [Example 3008, ethyl (5-((4-chloro-5-((3-(2,3-dihydrobenzo[b][1,4]dioxin-6-yl)-2-methylbenzyl)oxy)-2-formylphenoxy)methyl)pyridin-3-yl)carbamate], the IC50 was 0.6 to 10 nM.

Consider `CC(=O)NCCNCc1ccc(OCc2cccc(-c3ccccc3)c2C)cc1OCc1cccc(Oc2ccccc2F)c1` [Example 1077, N-(2-((2-((3-(2-fluorophenoxyl)benzyl)oxy)-4-((2-methyl-[1,1′-biphenyl]-3-yl)methoxy)benzyl)amino)ethyl)acetamide], for which the half-inhibitory concentration (IC50) fell in the range of 100 to 20000 nM.

Turning to `Cc1cc(CNC[C@@H](O)CC(=O)O)c(OCc2ccc(F)c(C#N)c2)cc1OCc1cccc(-c2ccc3c(c2)OCCO3)c1C` [Example 1270, (S)-4-((2-((3-cyano-4-fluorobenzyl)oxy)-4-((3-(2,3-dihydrobenzo[b][1,4]dioxin-6-yl)-2-methylbenzyl)oxy)-5-methylbenzyl)amino)-3-hydroxybutanoic acid], the IC50 lay within 0.6 to 10 nM.

`Cc1c(COc2ccc(CNC[C@@H](O)CC(=O)O)c(OCc3cncc(C#N)c3)c2)cccc1-c1ccccc1` [Example 1328, (S)-4-((2-((5-cyanopyridin-3-yl)methoxy)-4-((2-methyl-[1,1′-biphenyl]-3-yl)methoxy)benzyl)amino)-3-hydroxybutanoic acid]: the IC50 is 0.6 to 10 nM.

With `CC(=O)NCCNCc1ccc(OCc2cccc(-c3ccccc3)c2C)cc1OCc1ccc2[nH]ncc2c1` [Example 1098, N-(2-((2-((1H-indazol-5-yl)methoxy)-4-((2-methyl-[1,1′-biphenyl]-3-yl)methoxy)benzyl)amino)ethyl)acetamide], the IC50 was in the range of 100 to 20000 nM.

For the molecule `CCOc1cc(OCc2cccc(-c3ccccc3)c2C)ccc1CNCCNC(C)=O` [Example 1044, N-(2-((2-ethoxy-4-((2-methyl-[1,1′-biphenyl]-3-yl)methoxy)benzyl)amino)ethyl)acetamide], the half-inhibitory concentration (IC50) lay in the range of 100 to 20000 nM.

In the case of `Cc1c(COc2cc(OCc3cncc(C#N)c3)c(CN[C@H](CO)C(=O)O)cc2Cl)cccc1-c1ccc2c(c1)OCCO2` [Example 1249, (R)-2-((5-chloro-2-((5-cyanopyridin-3-yl)methoxy)-4-((3-(2,3-dihydrobenzo[b][1,4]dioxin-6-yl)-2-methylbenzyl)oxy)benzyl)amino)-3-hydroxypropanoic acid], the half-inhibitory concentration (IC50) is 0.6 to 10 nM.

On to `Cc1c(COc2cc(OCc3cccc(C#N)c3)c(CN[C@H](CO)C(=O)O)cc2Cl)cccc1-c1ccc2c(c1)OCCO2` [Example 1157, (R)-2-((5-chloro-2-((3-cyanobenzyl)oxy)-4-((3-(2,3-dihydrobenzo[b][1,4]dioxin-6-yl)-2-methylbenzyl)oxy)benzyl)amino)-3-hydroxypropanoic acid], for which the IC50 was in the range of 0.6 to 10 nM.

Turning to `Cc1c(COc2ccc(CN[C@H](CO)C(=O)O)c(OCc3cccc(C(N)=O)c3)c2)cccc1-c1ccc2c(c1)OCCO2` [Example 1325, (R)-2-((2-((3-carbamoylbenzyl)oxy)-4-((3-(2,3-dihydrobenzo[b][1,4]dioxin-6-yl)-2-methylbenzyl)oxy)benzyl)amino)-3-hydroxypropanoic acid], the half-maximal inhibitory concentration (IC50) was 10 to 100 nM.

With `Cc1c(COc2cc(OCc3cccc(C#N)c3)c(CNC(Cc3ccc(O)cc3)C(=O)O)cc2Cl)cccc1-c1ccc2c(c1)OCCO2` (stereo not drawn) [Example 1187, 2-((5-chloro-2-((3-cyanobenzyl)oxy)-4-((3-(2,3-dihydrobenzo[b][1,4]dioxin-6-yl)-2-methylbenzyl)oxy)benzyl)amino)-3-(4-hydroxyphenyl)propanoic acid], the IC50 was in the range of 10 to 100 nM.

Regarding `COc1ccc(COc2cc(OCc3cccc(-c4ccccc4)c3C)ccc2CNCCNC(C)=O)cc1` [Example 1090, N-(2-((2-((4-methoxybenzyl)oxy)-4-((2-methyl-[1,1′-biphenyl]-3-yl)methoxy)benzyl)amino)ethyl)acetamide], the half-inhibitory concentration (IC50) lay within 100 to 20000 nM.

`Cc1c(COc2cc(OCc3cccc(C#N)c3)c(CN[C@H](C)C(=O)O)cc2Cl)cccc1-c1ccc2c(c1)OCCO2` [Example 1169, (R)-2-((5-chloro-2-((3-cyanobenzyl)oxy)-4-((3-(2,3-dihydrobenzo[b][1,4]dioxin-6-yl)-2-methylbenzyl)oxy)benzyl)amino)propanoic acid]: the 50% inhibitory concentration (IC50) was in the range of 0.6 to 10 nM.

`CC(=O)NCCNCc1cc(Cl)c(OCc2cccc(-c3ccc4c(c3)OCCO4)c2C)cc1OCc1cncc(C#N)c1` [Example 1251, N-(2-((5-chloro-2-((5-cyanopyridin-3-yl)methoxy)-4-((3-(2,3-dihydrobenzo[b][1,4]dioxin-6-yl)-2-methylbenzyl)oxy)benzyl)amino)ethyl)acetamide]: the half-inhibitory concentration (IC50) was in the range of 0.6 to 10 nM.

For the molecule `Cc1c(COc2cc(OCc3cccc(C#N)c3)c(CN3CCCC[C@H]3C(=O)O)cc2Br)cccc1-c1ccc2c(c1)OCCO2` [Example 1302, (S)-1-(5-bromo-2-((3-cyanobenzyl)oxy)-4-((3-(2,3-dihydrobenzo[b][1,4]dioxin-6-yl)-2-methylbenzyl)oxy)benzyl)piperidine-2-carboxylic acid], the IC50 fell in the range of 0.6 to 10 nM.
